How the values were obtained:
Type in all cases: in vivo
Lolium perenne (LOLPE) [1] = assay: Example B6: post application on weeds, LOLPE; details: 312 h, after 13 days, 100 = total damage, 0 = no damage, read-out: LOLPE damage to plant
Protocol: (§1) Lolium perenne (LOLPE), Alopecurus myosuroides (ALOMY), Echinochloa crus-galli (ECHCG) and Avena fatua (AVEFA). Activity Against Weeds Seeds of a variety of test species were sown in standard soil in pots. After cultivation for 8 days under controlled conditions in a glasshouse (at 24/16° C., day/night; 14 hours light; 65% humidity), the plants were sprayed with an aqueous spray solution derived from the formulation of the technical active ingredient in acetone/water (50:50) solution containing 0.5% Tween 20 (polyoxyethelyene sorbitan monolaurate, CAS RN 9005-64-5). The test plants were then grown in a glasshouse under controlled conditions in a glasshouse (at 24/16° C., day/night; 14 hours light; 65% humidity) and watered twice daily. After 13 days, the test was evaluated (100=total damage to plant; 0=no damage to plant).

[2] = test system: Alopecurus myosuroides (ALOMY); assay: Example B6: post application on weeds, ALOMY; details: 312 h, after 13 days, 100 = total damage, 0 = no damage, read-out: ALOMY damage to plant
Protocol: as §1

[3] = test system: Echinochloa crus-galli (ECHCG); assay: Example B6: post application on weeds, ECHCG; details: 312 h, after 13 days, 100 = total damage, 0 = no damage, read-out: ECHCG damage to plant
Protocol: as §1

Avena fatua (AVEFA) [4] = assay: Example B6: post application on weeds, AVEFA; details: 312 h, after 13 days, 100 = total damage, 0 = no damage, read-out: AVEFA damage to plant
Protocol: as §1

Lolium perenne (LOLPE) [5] = assay: Example B7: pre application on weeds, LOLPE; details: 312 h, pre-emergence spray one day after sowing, evaluated after 13 days, read-out: Pre application on weeds, LOLPE (100=total damage to plant; 0=no damage to plant)
Protocol: as §1, with “one day” for “8 days”

[6] = test system: Alopecurus myosuroides (ALOMY); assay: Example B7: pre application on weeds, ALOMY; details: 312 h, pre-emergence spray one day after sowing, evaluated after 13 days, read-out: Pre application on weeds, ALOMY (100=total damage to plant; 0=no damage to plant)
Protocol: as §1, with “one day” for “8 days”

[7] = test system: Echinochloa crus-galli (ECHCG); assay: Example B7: pre application on weeds, ECHCG; details: 312 h, pre-emergence spray one day after sowing, evaluated after 13 days, read-out: Pre application on weeds, ECHCG (100=total damage to plant; 0=no damage to plant)
Protocol: as §1, with “one day” for “8 days”

Avena fatua (AVEFA) [8] = assay: Example B7: pre application on weeds, AVEFA; details: 312 h, pre-emergence spray one day after sowing, evaluated after 13 days, read-out: Pre application on weeds, AVEFA (100=total damage to plant; 0=no damage to plant)
Protocol: as §1, with “one day” for “8 days”

Winter wheat (TRZAW) = assay: Example B8: post application on wheat, with and without safener cloquintocet-mexyl; details: after 13 days, 100 = total damage, 0 = no damage
Protocol: Application with Safener (Cloquintocet-Mexyl) Winter wheat seeds with a seed treatment of cloquintocet-mexyl applied at a rate of 0.5 g/kg seeds were sown in standard soil in pots. After cultivation for 8 days under controlled conditions in a glasshouse (at 24/16° C., day/night; 14 hours light; 65% humidity), the plants were sprayed with an aqueous spray solution derived from the formulation of the technical active ingredient in acetone/water (50:50) solution containing 0.5% Tween 20 (polyoxyethelyene sorbitan monolaurate, CAS RN 9005-64-5). The test plants were then grown in a glasshouse under controlled conditions in a glasshouse (at 24/16° C., day/night; 14 hours light; 65% humidity) and watered twice daily. After 13 days, the test was evaluated (100=total damage to plant; 0=no damage to plant).

[9] = 250 g/ha + 0.5 g/kg seeds cloquintocet-mexyl

Compound | pest or weed control at 250 g/ha (Lolium perenne (LOLPE) [1]) [%] | pest or weed control at 250 g/ha [2] [%] | pest or weed control at 250 g/ha [3] [%] | pest or weed control at 250 g/ha (Avena fatua (AVEFA) [4]) [%] | pest or weed control at 250 g/ha (Lolium perenne (LOLPE) [5]) [%] | pest or weed control at 250 g/ha [6] [%] | pest or weed control at 250 g/ha [7] [%] | pest or weed control at 250 g/ha (Avena fatua (AVEFA) [8]) [%] | TRZAW damage to plant (Winter wheat (TRZAW); [9]) | TRZAW damage to plant (Winter wheat (TRZAW); 250 g/ha, without safener)
CCOC(=O)Oc1c(-c2c(C)cc(C)cc2OC)c(=O)n2n1CCN(OC)CC2 [Compound P1.9] | 90 | 90 | 100 | 90 | 80 | 70 | 70 | 80 | 60 | 80
CCOC(=O)Oc1c(-c2c(C)cc(Br)cc2C)c(=O)n2n1CCN(OC)CC2 [Compound P1.10] | 70 | 80 | 60 | 70 | 70 | 70 | 60 | 40 | 30 | 60
CCOC(=O)Oc1c(-c2c(Cl)cc(C)cc2Br)c(=O)n2n1CCN(OC)CC2 [Compound P1.11] | 80 | 80 | 60 | 70 | 90 | 100 | 80 | 70 | 10 | 60
CCOC(=O)Oc1c(-c2c(C)cc(Cl)cc2Br)c(=O)n2n1CCN(OC)CC2 [Compound P1.12] | 70 | 80 | 50 | 70 | 100 | 90 | 0 | 10 | 30 | 60
CON1CCN2C(=O)C(c3c(C)cc(C)cc3C)C(=O)N2CC1 [Compound P2.1, 3-Methoxy-8-(2,4,6-trimethyl-phenyl)-tetrahydro-pyrazolo[1,2-a][1,2,5]triazepine-7,9-dione] | 90 | 90 | 100 | 90 | 100 | 100 | 100 | 90 | 30 | 60
CON1CCN2C(=O)C(c3c(C)cc(Cl)cc3C)C(=O)N2CC1 [Compound P2.2, 8-(4-Chloro-2,6-dimethyl-phenyl)-3-methoxy-tetrahydro-pyrazolo[1,2-a][1,2,5]triazepine-7,9-dione] | 70 | 70 | 60 | 50 | 80 | 80 | 70 | 50 | 20 | 30
C#Cc1cc(C)cc(C)c1C1C(=O)N2CCN(OC)CCN2C1=O [Compound P2.5] | 100 | 90 | 100 | 100 | 100 | 100 | 90 | 100 | 10 | 80

Source: US9282743B2, “Chemical compounds” (Syngenta Participations AG, priority 2011, dated 2016)
